Experimental data published in patent EP4450494A1, “INDOLE DERIVATIVES AS HISTONE DEACETYLASE (HDAC) INHIBITORS FOR THE TREATMENT OF CANCER” (Consejo Superior De Investigaciones Científicas, priority 2023, dated 2024).
pIC50: −log10 of the molar value.

Experiments:
Type in all cases: cell-based
[1] = tested on: U87 glioblastoma cell line; assay: MTT cell viability dose-response assay in U87; details: MTT assay after 72 h of treatment
Experimental: (§1) As a first screening, dose-response assays were done in U87 glioblastoma cell line in order to obtain the IC50 values of the different compounds. Cells were seeded at a density of 1.500 cells/well in 96-well plates, incubated overnight and treated with increasing concentrations of the corresponding compounds. After 72 h of treatment, cell viability was determined by MTT assay. For this, MTT was added to the wells and cells were incubated for 3,5 h at 37 °C and 5% CO2. Then, media was removed and DMSO was added to resuspend the formed crystals. Absorbance at 570 nm was measured using a spectrophotometer, and GraphPad Prism software was used to analyze the results and calculate the IC50 values.

GNS179 = assay: MTT cell viability assay in GNS179; details: GNS179 (patient-derived); MTT assay after 72 h of treatment
Experimental: as §1
(§2) With this aim, additional MTT assays were carried out following the same protocol in other glioblastoma conventional (U251) and patient-derived (GNS179) cell lines. […]

[2] = tested on: conventional (U251) and patient-derived (GNS166 and GNS179) cell lines; assay: Immunofluorescence for caspase-3 (apoptosis) in additional glioblastoma cell lines; details: dose-dependent
Experimental: (§3) For this, U87 cells were incubated for 48 h with increasing concentrations of the compounds. After that, cells were incubated with phosphohistone H3 or caspase-3 antibodies for the study of proliferation or apoptosis, respectively. Alexa Fluor 555 IgG anti-mouse and anti-rabbit secondary antibodies were used, and nuclear DNA was stained with DAPI. Pictures were taken with an Eclipse 80i microscope.
(§4) Furthermore, immunofluorescence assays for DDI199 were completed in additional conventional (U251) and patient-derived (GNS166 and GNS179) cell lines.

[3] = tested on: conventional (U251) and patient-derived (GNS166 and GNS179) cell lines; assay: Immunofluorescence for phosphohistone H3 (proliferation) in additional glioblastoma cell lines; details: dose-dependent
Experimental: as §3, §4

U251 = assay: MTT cell viability assay in U251; details: Homo sapiens, U-251, MTT assay after 72 h of treatment
Experimental: as §1, §2

HDAC6 = biological target: T1, HDAC6 (Homo sapiens, UniProt Q9UBN7); assay: Western blot of HDAC6 and acetylated α-tubulin in treated U87 cells; details: 48 h, effect higher with increasing concentrations
T1 construct: endogenous in cells; host or cells: U87 glioblastoma cell line
T1 sequence (Q9UBN7 1-1215): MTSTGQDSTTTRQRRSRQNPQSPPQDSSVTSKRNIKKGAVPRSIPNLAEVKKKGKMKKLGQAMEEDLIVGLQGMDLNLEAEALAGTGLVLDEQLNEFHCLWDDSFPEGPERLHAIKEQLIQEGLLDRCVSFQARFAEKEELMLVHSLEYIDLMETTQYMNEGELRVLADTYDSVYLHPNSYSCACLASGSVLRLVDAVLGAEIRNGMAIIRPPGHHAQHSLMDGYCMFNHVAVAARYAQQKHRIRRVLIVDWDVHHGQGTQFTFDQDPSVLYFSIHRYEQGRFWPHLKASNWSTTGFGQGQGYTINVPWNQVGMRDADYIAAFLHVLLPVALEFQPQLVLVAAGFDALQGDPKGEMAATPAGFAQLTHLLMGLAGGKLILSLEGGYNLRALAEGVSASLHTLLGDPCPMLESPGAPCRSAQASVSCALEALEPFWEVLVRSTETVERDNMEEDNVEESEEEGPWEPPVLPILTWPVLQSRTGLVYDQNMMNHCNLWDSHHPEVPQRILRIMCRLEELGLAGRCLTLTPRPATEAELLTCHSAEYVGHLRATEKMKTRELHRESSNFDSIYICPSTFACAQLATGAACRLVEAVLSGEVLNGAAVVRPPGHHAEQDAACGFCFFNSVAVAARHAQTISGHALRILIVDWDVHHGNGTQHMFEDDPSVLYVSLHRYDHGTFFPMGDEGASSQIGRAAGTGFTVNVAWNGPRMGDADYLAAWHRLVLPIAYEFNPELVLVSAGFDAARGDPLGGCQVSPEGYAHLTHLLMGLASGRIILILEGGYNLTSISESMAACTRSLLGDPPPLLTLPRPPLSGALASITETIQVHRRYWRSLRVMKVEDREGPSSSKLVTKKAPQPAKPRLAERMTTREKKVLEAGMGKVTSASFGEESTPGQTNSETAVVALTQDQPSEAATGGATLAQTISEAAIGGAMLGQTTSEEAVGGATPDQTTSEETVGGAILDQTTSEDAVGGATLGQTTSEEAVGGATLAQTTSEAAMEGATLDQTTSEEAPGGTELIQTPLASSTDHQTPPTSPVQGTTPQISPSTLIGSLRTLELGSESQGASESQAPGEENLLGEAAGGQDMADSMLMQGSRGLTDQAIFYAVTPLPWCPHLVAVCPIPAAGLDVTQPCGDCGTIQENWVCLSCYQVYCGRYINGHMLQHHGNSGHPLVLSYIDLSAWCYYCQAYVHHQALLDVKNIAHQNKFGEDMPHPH
Experimental: Basing on the IC50 values, DDI199, MTP142, MTP156, MTP150, FRB44 and FRB56 were selected for further studies, as they seem to be the most promising compounds (see figure 1). Thus, the capacity of these compounds as HDAC inhibitors was tested. […] For this, specific antibodies against HDAC6 and HDAC1, and acetylated α-tubulin and acetylated histone H3 were used, and β-actin was included as control. Secondary antibodies were horseradish peroxidase (HRP)-linked anti-rabbit and anti-mouse and detection was performed by chemiluminiscence with NOVEX ECL Chemi Substrate.

Compound | pIC50 [1] | pIC50 (GNS179) | apoptosis (caspase-3 positive cells) [2] | cell proliferation (PH3 positive cells) [3] | pIC50 (U251) | HDAC6 inhibitory capacity (HDAC6)
C#CCN(Cc1cc2cc(OCCCN3CCCCC3)ccc2n1S(=O)(=O)c1ccccc1)C(=O)CCCCCCC(=O)NO [DDI199, N1-Hydroxy-N8-((1-(phenylsulfonyl)-5-(3-(piperidin-1-yl)propoxy)-1H-indol-2-yl)methyl)-N8-(prop-2-yn-1-yl)octanediamide] | 5.49 | 5.36 | induces apoptosis | significantly reduces cell proliferation | 5.26 | high HDAC6 inhibitory capacity
COc1ccc2c(ccn2S(=O)(=O)c2cccc(/C=C/C(=O)NO)c2)c1 [MTP142, (E)-N-Hydroxy-3-(3-((5-methoxy-1H-indol-1-yl)sulfonyl)phenyl)acrylamide] |  |  |  |  |  | inhibits HDAC6, although this effect is much slighter than that for DDI199
